The values that follow come from US10363257B2 (ZENITH EPIGENETICS LTD., priority 2013, dated 2019).

Test [1] relates to human AML MV-4-11 cells. The test can be described thus: Inhibition of cell proliferation in MV4-11 cells (CellTiter Aqueous One). Format: cell-based. The note with it: for IC50: MV4-11, 72 h. A digest of the protocol: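 Exponentially growing MV-4-11 cells (5×10^4/well) were treated immediately with two-fold dilutions of compound from 30 μM to 0.2 μM, in triplicate, for 72 h at 37° C, 5% CO2. Viability was measured by MTS absorbance at 490 nm after 3–4 h. Proliferation relative to DMSO after blank correction gave IC50.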

The target of test [2] is T1, Brd4 bromodomain 1 (BRD4(1)) (Homo sapiens, UniProt O60885).
T1 construct: made in house; host or cells: E. coli BL21(DE3)
The test can be described thus: Inhibition of tetra-acetylated histone H4 binding to Brd4 bromodomain 1 (TR-FRET). The note with it: tetra-acetylated histone H4 peptide, first bromodomain of Brd4. A digest of the protocol:
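His-tagged BRD4(1) from E. coli (200 nM) with biotinylated tetra-acetylated H4 peptide (25-50 nM), Eu-cryptate streptavidin and XL665 anti-His, in HEPES pH 7.4/phosphate/KF buffer, 0.2% DMSO. After 2 h at room temperature, TR-FRET 665/620 nm ratio read; IC50 from dose-response curves.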

Test [3] deals with c-myc. Briefly: Inhibition of c-myc expression (mRNA, real-time PCR) in MV4-11 cells. It is filed as cell-based. The following applies: Human AML MV4-11 cells, 3 h, cMYC mRNA. The method, then:
MV4-11 cells (CRL-9591) were plated at a density of 2.5×10^4 cells per well in 96 well U-bottom plates and treated with increasing concentrations of test compound or DMSO (0.1%) in IMDM media containing 10% FBS and penicillin/streptomycin, and incubated for 3 h at 37° C. Triplicate wells were used for each concentration. Cells were pelleted by centrifugation and harvested using the mRNA Catcher PLUS kit according to manufacturer's instructions. The eluted mRNA isolated was then used in a one-step quantitative real-time PCR reaction, using components of the RNA UltraSense™ One-Step Kit (Life Technologies) together with Applied Biosystems TaqMan® primer-probes for cMYC and Cyclophilin. Real-time PCR plates were run on a VIaTM7 real time PCR machine (Applied Biosystems), data was analyzed, normalizing the Ct values for cMYC to an internal control, prior to determining the fold expression of each sample, relative to the control.
A general note: Real-time PCR tracks product formation cycle by cycle.

`Cn1nccc1-c1cnc2nc(NC3CCOCC3)n(Cc3ccccc3)c2c1` [compound 176, 1-benzyl-6-(1-methyl-1H-pyrazol-5-yl)-N-(tetrahydro-2H-pyran-4-yl)-1H-imidazo[4,5-b]pyridin-2-amine]: the IC50 in test [1], in test [2] and in test [3] was 300 to 3000 nM each time.

For `Cc1noc(C)c1-c1cc(N)c2[nH]c(=S)n(Cc3ccccc3)c2c1` [compound 177, 4-amino-1-benzyl-6-(3,5-dimethylisoxazol-4-yl)-1H-benzo[d]imidazole-2(3H)-thione], the half-maximal inhibitory concentration (IC50) in test [1] is no more than 300 nM; in test [2], 300 to 3000 nM; in test [3], no more than 300 nM.

For `Cc1noc(C)c1-c1cc(N)c2[nH]c(=O)n([C@@H](C)c3ccccc3)c2c1` [compound 178, (S)-4-amino-6-(3,5-dimethylisoxazol-4-yl)-1-(1-phenylethyl)-1H-benzo[d]imidazol-2(3H)-one], the IC50 in test [1] is 300 to 3000 nM; in test [2], no more than 300 nM; in test [3], no more than 300 nM.

With `Cc1noc(C)c1-c1cc(N)c2[nH]c(=O)n([C@H](C)c3ccccc3)c2c1` [compound 179, (R)-4-amino-6-(3,5-dimethylisoxazol-4-yl)-1-(1-phenylethyl)-1H-benzo[d]imidazol-2(3H)-one], the IC50 in test [1], in test [2] and in test [3] was no more than 300 nM in each case.

As for `Cc1noc(C)c1-c1cnc2[nH]c(=O)n(Cc3ccccc3)c2c1C` [compound 180, 1-benzyl-6-(3,5-dimethylisoxazol-4-yl)-7-methyl-1H-imidazo[4,5-b]pyridin-2(3H)-one], the half-inhibitory concentration (IC50) in test [1] is 300 to 3000 nM; in test [2] it was no more than 300 nM; in test [3], 300 to 3000 nM.

In the case of `Cc1noc(C)c1-c1cnc2nc(C)n(Cc3ccccc3)c2c1C` [compound 181, 4-(1-benzyl-2,7-dimethyl-1H-imidazo[4,5-b]pyridin-6-yl)-3,5-dimethylisoxazole], the 50% inhibitory concentration (IC50) in test [1] was 300 to 3000 nM; in test [2] it was no more than 300 nM; in test [3] it was no more than 300 nM.

`Cc1noc(C)c1-c1cc(N2CCOCC2)c2nc(C)n(Cc3ccccc3)c2c1` [compound 182, 4-(1-benzyl-6-(3,5-dimethylisoxazol-4-yl)-2-methyl-1H-benzo[d]imidazol-4-yl)morpholine]: the values for the IC50 in test [1], in test [2] and in test [3] were 300 to 3000 nM, no more than 300 nM and 300 to 3000 nM, respectively.

Turning to `Cc1noc(C)c1-c1cc(N2CCC2=O)c2nc(C)n(Cc3ccccc3)c2c1` [compound 183, 1-(1-benzyl-6-(3,5-dimethylisoxazol-4-yl)-2-methyl-1H-benzo[d]imidazol-4-yl)azetidin-2-one], the IC50 was 3000 to 30000 nM in test [1], no more than 300 nM in test [2] and 300 to 3000 nM in test [3].

On to `Cc1noc(C)c1-c1cnc2nc(NCc3cccnc3)n(Cc3ccccc3)c2c1` [compound 185, 1-benzyl-6-(3,5-dimethylisoxazol-4-yl)-N-(pyridin-3-ylmethyl)-1H-imidazo[4,5-b]pyridin-2-amine], for which the IC50 in test [1], in test [2] and in test [3] was no more than 300 nM in each case.

For the compound `Cc1noc(C)c1-c1cc(Br)c2nc(C)n(CCc3ccccc3)c2c1` [compound 186, 4-(4-bromo-2-methyl-1-phenethyl-1H-benzo[d]imidazol-6-yl)-3,5-dimethylisoxazole], in test [1] (72 h), the “Cell Proliferation activity” value is on record as “Not active”. For the same compound, the figures for the half-maximal inhibitory concentration (IC50) in test [2] and in test [3] were no more than 300 nM and 3000 to 30000 nM, respectively.

As for `Cc1noc(C)c1-c1cnc2nc(C)n(CC3CCCCC3)c2c1` [compound 191, 4-(1-(cyclohexylmethyl)-2-methyl-1H-imidazo[4,5-b]pyridin-6-yl)-3,5-dimethylisoxazole], the IC50 in test [1] is 300 to 3000 nM; in test [2], no more than 300 nM; in test [3] it was no more than 300 nM.

On to `Cc1noc(C)c1-c1cnc2nc(C)n(CC3CCCC3)c2c1` [compound 192, 4-(1-(cyclopentylmethyl)-2-methyl-1H-imidazo[4,5-b]pyridin-6-yl)-3,5-dimethylisoxazole], for which the IC50 in test [1] was 300 to 3000 nM; in test [2], no more than 300 nM; in test [3], 300 to 3000 nM.

By IC50 is commonly meant the concentration needed to halve the response being measured.
